The text below walks through data of patent publication US20240164373A1, “ANTIMICROBIAL PERFUMING CONSUMER PRODUCTS” (Firmenich SA, priority 2021, published 2024).

SMILES strings stand for the structures. Values after ≈ are worked out from the molar mass of the structure shown. A value given as a limit tells only on which side of the number the result lay.

Common to all, as to format: cell-based
Assay [1] has as its system Corynebacterium tuberculostearicum C1. The assay is described as follows: MIC test in 96 well plates (broth dilution, turbidity). The following applies: average of three replicates, BHI-TW80 broth, sample in DMSO, read-out: Minimal inhibitory concentration (ppm) Corynebacterium tuberculostearicum C1. The method, then:
Bacterial suspension of the Corynebacterium tuberculostearicum C1 strain was prepared as follows: Stock culture (stored at −80° C.) was subcultured onto tryptic soy agar plates with 0.5% Tween 80 (TSA-TW80), and subsequently incubated at 37 °C for 48 h. The primary cultures were subcultured again onto TSA-TW80 to prepare the secondary cultures. One single colony of the secondary culture was then selected and used to inoculate 50 ml brain heart infusion broth with 0.5% Tween 80 (BHI-TW80). The inoculated broth was incubated at 37° C. and 180 rpm overnight. Aliquots (2 mL) of the overnight culture were inoculated into 50 ml of fresh BHI-TW80 broth media, and incubated at 37° C., 160 rpm. When the OD600 nm reached the target value of 4.0, cells were harvested by centrifugation at 5000 rpm for 10 min, and then resuspended in the fresh BHI-TW80 broth media at the same volume before the centrifugation. Aliquots (1 ml) of each cell suspension were diluted in 200 ml of fresh BHI-TW80 broth media as the bacterial solutions for the MIC test.
Sample solutions of test materials and reference material were prepared in ethanol for MIC test for E. coli and S. aureus strains or in DMSO for C. tuberculostearicum and C. acnes strains. In brief, stock solutions of 1% and 20% were prepared in each solvent, and then seven serial dilutions of each stock solution were prepared in each solvent to obtain a total of 16 solutions of the test material or the reference material. Aliquot (10 μl) of each solution was used for MIC test. The tested final concentrations of each material were 29, 44, 66, 99, 148, 222, 333, 500, 590, 900, 1300, 2000, 3000, 4500, 6700, 10000 ppm.
MIC test were performed in 96 well plates. […] Column 1 contained bacterial solution only (the positive growth control), and column 12 contained growth media only (the negative growth control). […]
Minimal inhibitory concentration (MIC) was determined as the lowest concentration where no growth was observed. Average MIC value of the three replicates was calculated against each strain.

Assay [2] has as its system Staphylococcus aureus ATCC 6538. The assay is described as above. Particulars: ATCC6538, average of three replicates, MH broth, sample in ethanol, 37° C. overnight, read-out: Minimal inhibitory concentration (ppm) Staphylococcus aureus ATCC 6538.
Assay [3] concerns Escherichia coli ATCC 25922. The description is as above. The following applies: ATCC25922, average of three replicates, MH broth, sample in ethanol, 37° C. overnight, read-out: Minimal inhibitory concentration (ppm) Escherichia coli ATCC 25922.
In assay [4] the test system is Cutibacterium acnes DSM 1897. The assay is described as follows: MIC test in 96 well plates (broth dilution, turbidity), anaerobic strain. Particulars: DSM1897, average of three replicates, WC broth, sample in DMSO, read-out: Minimal inhibitory concentration (ppm) Cutibacterium acnes DSM 1897.
The test system of a further assay is Escherichia coli DSM 787. The assay is described as follows: MIC test in 96 well plates (broth dilution, turbidity). Particulars: DSM787, average of three replicates, MH broth, sample in ethanol, 37° C. overnight, read-out: Minimal inhibitory concentration (ppm) Escherichia coli DSM 787.

Take `CCC=C(C)C(O)C(C)CC` (stereo not drawn) [3,5-dimethyl-5-octen-4-ol]: the MIC came to 2670 µg/mL (≈ 17100 µM) in assay [1], 1530 µg/mL (≈ 9810 µM) in assay [2], 3500 µg/mL (≈ 22400 µM) in assay [3] and 1770 µg/mL (≈ 11300 µM) in assay [4].

As for `CC(CCO)CCc1ccccc1` (stereo not drawn) [3-methyl-5-phenyl-1-pentanol], the MIC in assay [1] came to 200 µg/mL (≈ 1120 µM); in the assay with Escherichia coli DSM 787, 360 µg/mL (≈ 2020 µM); in assay [2] it was 185 µg/mL (≈ 1040 µM); in assay [4], 259 µg/mL (≈ 1450 µM).

Consider `CC(O)CC(C)CCc1ccccc1` (stereo not drawn) [4-methyl-6-phenyl-2-hexanol], for which the MIC in assay [1] is 1300 µg/mL (≈ 6760 µM); in assay [2], 173 µg/mL (≈ 900 µM); in assay [3] it was > 10000 µg/mL; in assay [4], 148 µg/mL (≈ 770 µM).
